± gives the expanded uncertainty stated by the source.
Assay: wn = mass fraction of the nth substance listed
Conditions: 293.15 K; 100 kPa; Liquid; Vibrating tube method; w1 = 0.7

SMILES	mass density
O=[N+]([O-])O [nitric acid] + O	1411.5 ± 2.9 kg/m3

Assay: not given
Conditions: 293.15 K; 101.33 kPa; Liquid; Vibrating tube method

SMILES	mass density
CC(=O)CC(C)C [4-methylpentan-2-one]	800.9 ± 1.6 kg/m3
CCn1cc[n+](C)c1.F[B-](F)(F)F [1-ethyl-3-methylimidazolium tetrafluoroborate]	1283 ± 5.3 kg/m3
CO [methanol]	791.9 ± 0.4 kg/m3

The next lines start with the values.

mass density	SMILES
810.1 ± 1.6 kg/m3	CCCC(C)O (stereo unspecified) [pentan-2-ol]
998.5 ± 0.4 kg/m3	O [water]

— the NIST ThermoML archive (doi:10.1016/j.jct.2019.01.001)
